Tested on: 926638-142-R-J1-PDC complex spheroid viability
Experiment: Anticancer human tumor 926638-142-R-J1-PDC patient-derived endometrial carcinoma cell line growth inhibition [POLQ]
Conditions: for IC50: curve of first compound; for viability, T/C: stronger effect = lower value; active = viability on the fitted dose curve at most 10% of control; inactive = the rest
Method in brief: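 Growth inhibition in 3D: complex spheroids (tumor PDC, HUVEC, MSC) treated with POLQ inhibitor combinations; where Cmax unknown, highest tested concentration 10 microM, except SN-38 at 1 microM.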

[1] = second compound 0.0316 µM, first compound 0.0316 µM
[2] = second compound 0.0316 µM, first compound 0.1 µM
[3] = second compound 0.0316 µM, first compound 0.316 µM
[4] = second compound 0.0316 µM, first compound 1 µM
[5] = second compound 0.0316 µM, first compound 3.16 µM
[6] = second compound 0.0316 µM, first compound 10 µM
[7] = second compound 0.1 µM, first compound 0.0316 µM
[8] = second compound 0.1 µM, first compound 0.1 µM
[9] = second compound 0.1 µM, first compound 0.316 µM
[10] = second compound 0.1 µM, first compound 1 µM
[11] = second compound 0.1 µM, first compound 3.16 µM
[12] = second compound 0.1 µM, first compound 10 µM
[13] = second compound 0.316 µM, first compound 0.0316 µM
[14] = second compound 0.316 µM, first compound 0.1 µM
[15] = second compound 0.316 µM, first compound 0.316 µM
[16] = second compound 0.316 µM, first compound 1 µM
[17] = second compound 0.316 µM, first compound 3.16 µM
[18] = second compound 0.316 µM, first compound 10 µM
[19] = second compound 1 µM, first compound 0.0316 µM
[20] = second compound 1 µM, first compound 0.1 µM
[21] = second compound 1 µM, first compound 0.316 µM
[22] = second compound 1 µM, first compound 1 µM
[23] = second compound 1 µM, first compound 3.16 µM
[24] = second compound 1 µM, first compound 10 µM
[25] = second compound 3.16 µM, first compound 0.0316 µM
[26] = second compound 3.16 µM, first compound 0.1 µM
[27] = second compound 3.16 µM, first compound 0.316 µM
[28] = second compound 3.16 µM, first compound 1 µM
[29] = second compound 3.16 µM, first compound 3.16 µM
[30] = second compound 3.16 µM, first compound 10 µM
[31] = second compound 10 µM, first compound 0.0316 µM
[32] = second compound 10 µM, first compound 0.1 µM
[33] = second compound 10 µM, first compound 0.316 µM
[34] = second compound 10 µM, first compound 1 µM
[35] = second compound 10 µM, first compound 3.16 µM
[36] = second compound 10 µM, first compound 10 µM
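Note: spheroids exposed to drugs for one week before readout.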
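Throughout, for viability, T/C: percent viability relative to DMSO vehicle control wells set as 100%.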

CC1COCCN1c1cc(-c2ccnn2C)c2ccnc(-c3ccn[nH]3)c2n1 (stereo unspecified) + Nc1ccc(C#CCN(C(=O)Cc2ncc(C(F)(F)F)cc2C(F)(F)F)c2ccc(F)cc2)nn1
0.377 µM: IC50 (second compound 0.316 µM)
0.285 µM: IC50 (second compound 1 µM)
inactive: viability, T/C [1] 101% | viability, T/C [2] 83.7% | viability, T/C [3] 60.3% | viability, T/C [4] 36.7% | viability, T/C [5] 14% | viability, T/C [7] 108% | viability, T/C [8] 85.9% | viability, T/C [9] 50.5% | viability, T/C [10] 33.7% | viability, T/C [11] 14.1% | viability, T/C [13] 104% | viability, T/C [14] 84.7% | viability, T/C [15] 54.5% | viability, T/C [16] 26.7% | viability, T/C [17] 16.8% | viability, T/C [18] 10.1% | viability, T/C [19] 99.7% | viability, T/C [20] 69.6% | viability, T/C [21] 51.7% | viability, T/C [22] 27.5% | viability, T/C [23] 14.3% | viability, T/C [25] 89.8% | viability, T/C [26] 73.6% | viability, T/C [27] 53.9% | viability, T/C [28] 28.6% | viability, T/C [29] 16.7% | viability, T/C [31] 73.3% | viability, T/C [32] 74.5% | viability, T/C [33] 52.5% | viability, T/C [34] 25.7% | viability, T/C [35] 15.1% | viability, T/C [36] 9.63%
0.369 µM: IC50 (second compound 10 µM)
0.386 µM: IC50 (second compound 0.1 µM)
0.503 µM: IC50 (second compound 0.0316 µM)
0.357 µM: IC50 (second compound 3.16 µM)
active: viability, T/C [6] 9.34% | viability, T/C [12] 9.21% | viability, T/C [24] 9.7% | viability, T/C [30] 8.56%

CC1COCCN1c1cc(C2(S(C)(=N)=O)CC2)nc(-c2ccnc3[nH]ccc23)n1 (stereo unspecified) + Nc1ccc(C#CCN(C(=O)Cc2ncc(C(F)(F)F)cc2C(F)(F)F)c2ccc(F)cc2)nn1
3.93 µM: IC50 (second compound 3.16 µM)
5.47 µM: IC50 (second compound 0.316 µM)
4.85 µM: IC50 (second compound 1 µM)
5.2 µM: IC50 (second compound 0.0316 µM)
inactive: viability, T/C [1] 111% | viability, T/C [2] 108% | viability, T/C [3] 93.2% | viability, T/C [4] 82.3% | viability, T/C [5] 71% | viability, T/C [6] 28.3% | viability, T/C [7] 111% | viability, T/C [8] 110% | viability, T/C [9] 97.4% | viability, T/C [10] 77.9% | viability, T/C [11] 63.6% | viability, T/C [12] 28.9% | viability, T/C [13] 99.4% | viability, T/C [14] 104% | viability, T/C [15] 91.9% | viability, T/C [16] 84.3% | viability, T/C [17] 65.9% | viability, T/C [18] 32.8% | viability, T/C [19] 103% | viability, T/C [20] 106% | viability, T/C [21] 90.4% | viability, T/C [22] 80% | viability, T/C [23] 64.4% | viability, T/C [24] 28.9% | viability, T/C [25] 100% | viability, T/C [26] 98.9% | viability, T/C [27] 99.5% | viability, T/C [28] 92.6% | viability, T/C [29] 54.7% | viability, T/C [30] 29.7% | viability, T/C [31] 98.5% | viability, T/C [32] 90.6% | viability, T/C [33] 87.9% | viability, T/C [34] 90.9% | viability, T/C [35] 70.2% | viability, T/C [36] 29.8%
4.68 µM: IC50 (second compound 0.1 µM)
5.63 µM: IC50 (second compound 10 µM)

CCCS(=O)(=O)Nc1ccc(F)c(C(=O)c2c[nH]c3ncc(-c4ccc(Cl)cc4)cc23)c1F + Nc1ccc(C#CCN(C(=O)Cc2ncc(C(F)(F)F)cc2C(F)(F)F)c2ccc(F)cc2)nn1
8.43 µM: IC50 (second compound 3.16 µM)
8.9 µM: IC50 (second compound 0.316 µM)
8.58 µM: IC50 (second compound 1 µM)
inactive: viability, T/C [1] 99.5% | viability, T/C [2] 90.5% | viability, T/C [3] 103% | viability, T/C [4] 85.7% | viability, T/C [5] 80% | viability, T/C [6] 42.2% | viability, T/C [7] 111% | viability, T/C [8] 85.7% | viability, T/C [9] 103% | viability, T/C [10] 81.8% | viability, T/C [11] 94.5% | viability, T/C [12] 50.9% | viability, T/C [13] 90.4% | viability, T/C [14] 97.9% | viability, T/C [15] 100% | viability, T/C [16] 99.9% | viability, T/C [17] 87.1% | viability, T/C [18] 45.3% | viability, T/C [19] 105% | viability, T/C [20] 92.1% | viability, T/C [21] 93.3% | viability, T/C [22] 92.8% | viability, T/C [23] 80.4% | viability, T/C [24] 44.8% | viability, T/C [25] 89.8% | viability, T/C [26] 83.6% | viability, T/C [27] 90.5% | viability, T/C [28] 87.8% | viability, T/C [29] 88.6% | viability, T/C [30] 43.4% | viability, T/C [31] 87.9% | viability, T/C [32] 93.5% | viability, T/C [33] 91.3% | viability, T/C [34] 82.6% | viability, T/C [35] 71.2% | viability, T/C [36] 40.1%
7.88 µM: IC50 (second compound 0.0316 µM)
6.87 µM: IC50 (second compound 10 µM)
> 10 µM: IC50 (second compound 0.1 µM)

Source: PubChem BioAssay AID1963826 (Molecular Pharmacology Branch, DTP, NCI, 2024)
